Results taken from patent US5296491A, “Pyrazolo[4,3-c]pyridines and their use as serotonin reuptake inhibitors” (Hoechst-Roussel Pharmaceuticals Inc., priority 1993, dated 1994).
Structures can show the parent of a compound that is named as a salt.

Tested on: serotonin (5-hydroxytryptamine (5HT)) uptake
Experiment: [^3 H]-Serotonin Uptake in Rat Whole Brain and Hypothalamic Synaptosomes
Type: biochemical, rat (male Wistar)
Details: [^3 H]-5HT 50 nM, 5 minutes, 37° C., log probit analysis
Procedure: [^3 H]-Serotonin Uptake in Rat Whole Brain and Hypothalamic Synaptosomes
This activity is determined in an assay which measures [^3 H]-serotoninuptake in rat whole brain and hypothalamic synaptosomes. The assay described below is used as a biochemical screen for potential antidepressants which block serotonin (5-hydroxytryptamine (5HT)) uptake.
Male CR Wistar rats (100-125 g)
1. Krebs-Henseleit Bicarbonate Buffer, pH 7.4 (KHBB):
Prepare a 1 liter batch containing the following salts.
Prior to use add to 200 ml, per assay:
The batch is aerated for 60 minutes with 95% 02 /5% CO2, the pH is checked to insure it is at 7.4±0.1, then add bovine serum albumin (Sigma cat# A-7906) 1 mg/ml.
Make a 4 liter batch, containing the following salts:
3. Sucrose solution: 0.32M sucrose containing 5 mM HEPES and 0.1 mM EDTA; pH to 7.3 using Tris base.
4. A 0.1 mM stock solution of serotonin creatinine SO4 is made up in 0.01N HCl. This is used to dilute the specific activity of the radiolabeled 5HT.
5. 5-[1,2-^3 H(N)]-Hydroxytryptamine creatinine sulfate (serotonin), specific activity 20-30 Ci/mmol, is used.
The final desired concentration of [^3 H]-5HT in the assay is 50 nM. The dilution factor is 0.8. The KHBB is made up to contain 62.5 nM of [^3 H]-5HT.
6. For most assays, a 0.5 mM stock solution of the test compound is made up initially in either 10 μl of glacial acetic acid, 100 μl DMSO or 10 μl of the recrystallization solvent, to which is added approximately 10 ml of distilled water. Compounds are initially screened in duplicate at 3 concentrations (10^-8, 10^-7 and 10^-6 M) made up in water.
The Percoll method for preparing synaptosomes has been modified from Nagy, A., Delgado-Escueta, A. V. J. Neurochem. 43, 1114 (1984) and Dunkley, P. R., Jarvie, R. E., Heath, J. W., Kidd, G. J., Rostas, J. A. P. Brain Research 372, 115 (1986). Male Wistar rats are decapitated and the brain rapidly removed. Whole brain (minus cerebellum) is weighed and homogenized in 15 volumes of ice cold Sucrose solution using a Potter-Elvejhem homogenizer. The following procedures are performed on ice. Homogenization should be done with 4-5 up and down strokes at medium speeds (setting 4.5 to 5) to minimize synaptosome lysis. The homogenate is centrifuged at 1000 g (3000 rpm, Sorvall SS-34 rotor) for 10 minutes at 0°-4° C. The supernatant is removed and approximately 10 ml per tube is carefully layered onto a discontinuous Percoll (Sigma cat# P-1644) gradient: 21% Percoll in Sucrose solution at the bottom (15 ml per tube) and 10% Percoll in the middle ( 10 ml; colored with a few drops of phenol red for visibility).
The Percoll gradient tubes are carefully placed into a Beckman SW-28 swinging bucket rotor and spun in a Beckman XL90 ultracentrifuge using the following program: speed, 11,000 rpm (15,000 g) for 30 minutes at 4° C.; slow acceleration and deceleration (acceleration setting 9; deceleration setting 3). Tubes are carefully removed, and the top layer and the top part of the middle (red) layer are discarded using a pasteur pipette. The synaptosomes are located in the white fluffy band at the interface between the 10% and 21% Percoll layers. This is carefully removed, placed in a centriguge tube, diluted with KHBB and spun at 21,000 g (13,000 rpm, Sorvall SS-34 rotor). The pellet (synaptosomes) is resuspended in KHBB (10 vol per gram original brain wet weight; 1 brain minus cerebellum weighs approximately 1.2 g; 2.5 brains are needed per typical assay).
200 μl of the tissue suspension are added to each of 24 tubes (at a time) containing the 20 μl of vehicle or drug on ice. Three minutes later, 800 μl of KHBB containing [^3 H]-5HT are added, and the tubes are vortexed. The rack containing the 24 tubes is moved from the ice bath to a water bath set at 37° C. The tubes are incubated for 5 minutes under 95% O2 /5% CO2.

## NCCn1nc(-c2ccc(C(F)(F)F)cc2)c2cnccc21 [Example 2Q, 1-(2-aminoethyl)-3-(4-trifluoromethylphenyl)-1H-pyrazolo[4,3-c]pyridine maleate]
  IC50: 1240 nM

## NCCCn1nc(-c2ccc(Cl)c(Cl)c2)c2cnccc21 [Example 2K, 1-(3-aminopropyl)-3-3,4-dichlorophenyl)-1H-pyrazolo[4,3-c]pyridine maleate]
  IC50: 240 nM

## NCCCn1nc(-c2ccc(Cl)c(Cl)c2Cl)c2cnccc21 [Example 2FF, 1-(3-aminopropyl)-3-(2,3,4-trichlorophenyl)-1H-pyrazolo[4,3-c]pyridine fumarate]
  IC50: 23 nM

## NCCCn1nc(-c2cccc(Cl)c2Cl)c2cnccc21 [Example 2DD, 1-(3-aminopropyl)-3-(2,3-dichlorophenyl)-1H-pyrazolo[4,3-c]pyridine fumarate]
  IC50: 410 nM

## NCCn1nc(-c2ccc(Cl)cc2Cl)c2cnccc21 [Example 2S, 1-(2-amimoethyl)-3-(2,4-dichlorophenyl)-1H-pyrazolo[4,3-c]pyridine fumarate]
  IC50: 58 nM

## NCCCn1nc(-c2ccc(Cl)cc2)c2cnccc21 [Example 2D, 1-[3-aminopropyl]-3-(4-chlorophenyl)-1H-pyrazolo[4,3-c]pyridine dimaleate]
  IC50: 770 nM

## NCCn1nc(-c2ccc(Cl)c(Cl)c2Cl)c2cnccc21 [Example 2EE, 1-(2-aminoethyl)-3-(2,3,4-trichlorophenyl)-1H-pyrazolo[4,3-c]pyridine fumarate]
  IC50: 49 nM

## NCCn1nc(-c2ccc(Cl)c(Cl)c2)c2cnccc21 [Example 2L, 1-(2-aminoethyl)-3-(3,4-dichlorophenyl)-1H-pyrazolo[4,3-c]pyridine maleate]
  IC50: 210 nM

## NCCn1nc(-c2ccc(Br)cc2)c2cnccc21 [Example 2H, 1-(2-aminoethyl)-3-(4-bromophenyl)-1H-pyrazolo[4,3-c]pyridine]
  IC50: 940 nM

## NCCCCn1nc(-c2ccc(Cl)cc2Cl)c2cnccc21 [1-(4-aminobutyl)-3-(2,4-dichlorophenyl)-1H-pyrazolo[4,3-c]pyridine dimaleate]
  IC50: 95 nM

## NCCn1nc(-c2cccc(Cl)c2Cl)c2cnccc21 [Example 2CC, 1-(2-aminoethyl)-3-(2,3-dichlorophenyl)-1H-pyrazolo[4,3-c]pyridine fumarate]
  IC50: 210 nM

## NCCn1nc(-c2ccccc2Br)c2cnccc21 [Example 2A, 1-(2-aminoethyl)-3-(2-bromophenyl)-1H-pyrazolo[4,3-c]pyridine dihydrochloride]
  IC50: 1530 nM

## Cc1ccccc1-c1nn(CCN)c2ccncc12 [1-(2-aminoethyl)-3-(2-methylphenyl)-1H-pyrazolo[4,3-c]pyridine]
  IC50: 870 nM
